Measurements taken from patent US4977151A, “Ethanone oximes and pharmaceutical compositions thereof” (Mitsubishi Kasei Corporation, priority 1987, dated 1990).
Where a name gives a salt, the structure may show the parent alone.

What follows are compounds tested on stress-induced gastric ulcer (assay: Anti-stress ulcer test: inhibition of stress-induced gastric ulcer in rats). Details: Rattus norvegicus, po, 15 h, read-out: Inhibition Rate of Stress-Induced Ulcer (%).
Format: in vivo, rat (Douryu male rats)
Procedure: Anti-stress ulcer tests were conducted as described below. Douryu non-fasted male rats (Shizuoka Laboratory Animal Center, body weight: 220-250 g), five in each group, were immobilized within a stress cage made of wire net and immersed in a water bath at 22 ±1° C. to a depth of xiphoid for loading them with stresses. The rats were clubbed to death after 15 hours and their stomachs were extirpated. After injecting about 15 ml of an aqueous 1% formalin solution into each of the stomachs, they were immersed in an aqueous 1 % formalin solution for about 10 minutes and fixed. After fixation, the stomachs were incised along the greater curvature. The longer diameter of each ulcer generated in the glandular portion was measured under stereomicroscope (X10) and the sum of them was defined to be an ulcer coefficient (mm). Chemicals to be tested were suspended in an aqueous 1 % gum arabic solution and orally administrated at a dose of 2 ml/kg, 30 min before the stress loading. For the control group, an aqueous 1 % gum arabic solution only was administrated, and their ulcer coefficient was compared to that of the group administrated with the tested chemicals to calculate the suppression rate of the tested chemicals. The dosage was 50 mg/kg for each of the compounds. The test compounds in the table are identified in corresponding Examples hereinafter described.

With `CN=C(NC#N)NCCSCc1nc[nH]c1C` [Cimethidine, reference compound] the inhibition in vivo at 200 mg/kg was 69.7%.

Same assay, conditions: Rattus norvegicus; 50 mg/kg, oral, 30 min before stress loading; water immersion stress 22 ±1° C., 15 hours; vs control group; read-out: Inhibition Rate of Stress-Induced Ulcer (%)

Point of comparison: `CCC1c2ccccc2CCc2ccc(/C(CN3CCN(C)CC3)=N/O)cc21` (centres unmarked) [Example 19, (Z)-2-(4-methylpiperazin-1-yl)-1-(10,11-dihydro-5H-5-ethyldibenzo[a,b]cyclohepten-3-yl)-ethanone oxime], inhibition in vivo at 50 mg/kg 90.7%. Against it:
- CN1CCN(C/C(=N\O)c2ccc(OCc3ccccc3)cc2)CC1 [Example 33, (Z)-2-(4-methyl-piperazin-1-yl)-1-(4-benzyloxy-phenyl)-ethanone oxime hydrochloride] — lower, 41.4%
- CN1CCN(C/C(=N\O)c2ccc(Cc3ccccc3)cc2)CC1 [Example 5, (Z)-2-(4-methylpiperazin-1-yl)-1-(4-benzyl-phenyl)-ethanone oxime] — higher, 100%
- CN1CCN(C/C(=N\O)c2ccc(C3CCCCC3)cc2)CC1 [Example 3, (Z)-2-(4-methylpiperazin-1-yl)-1-(4-cyclohexyl-phenyl)-ethanone oxime] — lower, 59.7%
- O/N=C(\CN1CCCCC1)c1ccc(CCc2ccccc2)cc1 [Example 11, (Z)-2-(piperidin-1-yl)-1-(4-(2-phenylethyl)-phenyl)-ethanone oxime] — lower, 53%
- CC(=O)N1c2ccccc2Sc2ccc(/C(CN3CCCCC3)=N/O)cc21 [Example 13] — higher, 100%
- CN1CCN(C/C(=N\O)c2ccc(Sc3ccccc3)cc2)CC1 [Example 1, (Z)-2-(4-methyl-piperazin-1-yl)-1-(4-phenylthio-phenyl)-ethanone oxime hydrochloride] — lower, 76.9%
- CN1CCN(C/C(=N\O)c2ccc3c(c2)Sc2ccccc2S3)CC1 [Example 14] — lower, 51.9%
- CN1CCN(C/C(=N\O)c2ccc(S(=O)(=O)c3ccccc3)cc2)CC1 [Example 20, (Z)-2-(4-methylpiperazin-1-yl)-1-(4-phenylsulfonyl-phenyl)-ethanone oxime] — lower, 80.3%
- CC1c2ccccc2CCc2ccc(/C(CN3CCN(C)CC3)=N/O)cc21 (centres unmarked) [Example 18, (Z)-2-(4-methylpiperazin-1-yl)-1-(10,11-dihydro-5H-5-methyldibenzo[a,b]cyclohepten-3-yl)-ethanone oxime] — higher, 100%
- CCOc1cc(CCc2ccccc2)ccc1/C(CN1CCN(C)CC1)=N/O [Example 34, (Z)-2-(4-methylpiperazin-1-yl)-1-(2-ethoxy-4-(2-phenylethyl)-phenyl)-ethanone oxime hydrochloride] — higher, 100%
- CC(=O)N(c1ccccc1)c1ccc(/C(CN2CCN(C)CC2)=N/O)cc1 [Example 6, (Z)-2-(4-methylpiperazin-1-yl)-1-(4-(N-acetyl-N-phenylamino)-phenyl)-ethanone oxime] — lower, 85.7%
- O/N=C(\CN1CCCCC1)c1ccc(-n2ccnc2)cc1 [Example 24, (Z)-2-(piperidin-1-yl)-1-(4-(imidazol-1-yl)-phenyl)-ethanone oxime] — lower, 41.5%
- CN1CCN(C/C(=N\O)c2ccc(CCc3ccccc3)cc2)CC1 [Example 8, (Z)-2-(4-methylpiperazin-1-yl)-1-(4-(2-phenylethyl)-phenyl)-ethanone oxime] — lower, 65.7%
- CN1CCN(C/C(=N\O)c2ccc3c(c2)Nc2ccccc2S3)CC1 [Example 22, (Z)-2-(4-methylpiperazin-1-yl)-1-(4-phenothiazin-2-yl)-ethanone oxime] — lower, 50.6%
- CC(C)Oc1ccccc1CCc1ccc(/C(CN2CCN(C)CC2)=N/O)cc1 [Example 40, (Z)-2-(4-methylpiperazin-1-yl)-1-(4-(2-(2-isopropoxy-phenyl)-ethyl)-phenyl)-ethanone oxime] — lower, 41.9%
- CN1CCN(C/C(=N\O)c2ccc(NS(=O)(=O)c3ccccc3)cc2)CC1 [Example 31, (Z)-2-(4-methylpiperazin-1-yl)-1-(4-benzenesulfonyl-amino-phenyl)-ethanone oxime] — lower, 48.4%
- CN1CCN(C/C(=N\O)c2ccc(-n3ccnc3)cc2)CC1 [Example 23, (Z)-2-(4-methylpiperazin-1-yl)-1-(4-(imidazol-1-yl)phenyl)-ethanone oxime] — lower, 50.5%
- CN1CCN(C/C(=N\O)c2ccc(N(c3ccccc3)c3ccccc3)cc2)CC1 [Example 7, (Z)-2-(4-methylpiperazin-1-yl)-1-(4-diphenylamino-phenyl)-ethanone oxime] — lower, 74.6%
